Measured values reported in the supplement of paper PMC10011410.
± gives the standard deviation of the averaged measurements.

Assays:
[1] = system: U-2 OS; assay: AUC of culture confluence over time (live-cell imaging) (AUC (confluence % x time)); higher = more confluent culture (less growth inhibition)
Experimental: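 Live-cell Incucyte imaging of U-2 OS cells in F-12K medium. Compounds were tested mostly at 5, 10 and 20 uM, and cells were imaged every 4 h for up to 60 h. Value is the area under the curve of phase-contrast confluence over time.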

[2] = system: U-2 OS; assay: relative cell count vs DMSO (cell painting) (fraction of DMSO control); higher = more cells remaining (less cytotoxic); conditions: 24 h
Experimental: (§1)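 Cell painting in U-2 OS cells (384-well, about 1,500 cells per well), compound exposure 24 h, usually six 2-fold concentrations from 20 to 0.625 uM (some compounds higher or lower). Relative cell count is the cell number per well relative to DMSO wells. Activity score is the Mahalanobis distance of the morphological profile from DMSO control wells. Mean of four technical replicate plates.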

[3] = system: U-2 OS; assay: cell painting activity score (Mahalanobis distance from DMSO wells); higher = stronger morphological phenotype; conditions: 24 h
Experimental: as §1

Row | Compound | AUC of culture confluence over time ([1]; 5 µM) | AUC of culture confluence over time ([1]; 10 µM) | AUC of culture confluence over time ([1]; 20 µM) | relative cell count ([2]; 0.625 µM) | relative cell count ([2]; 1.25 µM) | relative cell count ([2]; 2.5 µM) | relative cell count ([2]; 5 µM) | relative cell count ([2]; 10 µM) | relative cell count ([2]; 20 µM) | cell painting activity score ([3]; 0.625 µM) | cell painting activity score ([3]; 1.25 µM) | cell painting activity score ([3]; 2.5 µM) | cell painting activity score ([3]; 5 µM) | cell painting activity score ([3]; 10 µM) | cell painting activity score ([3]; 20 µM) | AUC of culture confluence over time ([1]; 1.25 µM) | relative cell count ([2]; 0.019532 µM) | relative cell count ([2]; 0.07812 µM) | relative cell count ([2]; 0.3124 µM) | cell painting activity score ([3]; 0.019532 µM) | cell painting activity score ([3]; 0.07812 µM) | cell painting activity score ([3]; 0.3124 µM)
1 | C/C(=C\c1csc(C)n1)[C@@H]1C[C@@H]2O[C@]2(C)CCC[C@H](C)[C@H](O)[C@@H](C)C(=O)C(C)(C)[C@@H](O)CC(=O)O1 | 21.8 | 21.4 | 21.2 | 0.22 | 0.223 | 0.284 | 0.468 | 0.553 | 0.521 | 21.1 | 20.7 | 22.7 | 22.5 | 23.6 | 23.9 |  |  |  |  |  |  | 
2 | CCOC(=O)C1=C(C)NC(=S)N[C@@H]1c1cccc(O)c1 | 48.6 | 50.3 | 44.1 | 0.936 | 0.94 | 1.01 | 0.941 | 0.954 | 0.999 | 4.88 | 4.81 | 5.49 | 5.58 | 4.56 | 4.64 |  |  |  |  |  |  | 
3 | CC(=O)O[C@H]1C(=O)[C@@]2(C)[C@H]([C@H](OC(=O)c3ccccc3)[C@]3(O)C[C@H](OC(=O)[C@H](O)[C@@H](NC(=O)c4ccccc4)c4ccccc4)C(C)=C1C3(C)C)[C@]1(OC(C)=O)CO[C@@H]1C[C@@H]2O | 17.4 |  | 20 |  | 0.253 ± 0.051 |  | 0.222 ± 0.03 |  | 0.351 ± 0.024 |  | 24.9 ± 1.2 |  | 23.3 ± 0.75 |  | 24.1 ± 0.87 | 17 | 0.939 ± 0.12 | 0.744 ± 0.19 | 0.413 ± 0.16 | 16.9 ± 1.5 | 19 ± 0.57 | 22.1 ± 1.1
4 | O=C(O)CCCc1ccc(N(CCCl)CCCl)cc1 | 50.2 | 44.6 | 36.8 | 0.967 | 0.951 | 0.908 | 0.881 | 0.837 | 0.784 | 4.38 | 5.9 | 8 | 10.4 | 10.8 | 12.6 |  |  |  |  |  |  | 
5 | CC1(C)CC[C@]2(C(=O)O[C@@H]3O[C@H](CO)[C@@H](O)[C@H](O)[C@H]3O)CC[C@]3(C)C(=CC[C@@H]4[C@@]5(C)CC[C@H](O[C@@H]6O[C@H](C(=O)O)[C@@H](O)[C@H](O)[C@H]6O[C@@H]6O[C@H](CO)[C@@H](O)[C@H](O)[C@H]6O)C(C)(C)[C@@H]5CC[C@]43C)[C@@H]2C1 | 54.4 | 51.1 | 57.6 | 0.971 | 0.973 | 0.949 | 0.938 | 0.915 | 0.964 | 4.68 | 4.76 | 5.42 | 5.24 | 6.27 | 9.37 |  |  |  |  |  |  | 
6 | CC[C@H]1CN2CCc3cc(OC)c(OC)cc3[C@@H]2C[C@@H]1C[C@H]1NCCc2cc(OC)c(OC)cc21.Cl.Cl.O | 15.2 | 16 | 16.6 | 0.51 | 0.489 | 0.482 | 0.462 | 0.462 | 0.433 | 18.4 | 18.9 | 19.4 | 20.8 | 20.8 | 20.6 |  |  |  |  |  |  | 
7 | Oc1ccc2ccccc2c1SSc1c(O)ccc2ccccc12 | 44.4 | 37.5 | 18 | 0.996 | 0.924 | 0.926 | 0.901 | 0.812 | 0.245 | 5.34 | 4.94 | 7.79 | 8.22 | 9.14 | 14 |  |  |  |  |  |  | 
8 | CC(C)(N=NC(C)(C)C(=N)N)C(=N)N.Cl.Cl | 49.5 | 48.3 | 46.6 | 1.01 | 0.966 | 0.949 | 1.01 | 0.975 | 0.977 | 5.15 | 4.98 | 5.89 | 7.2 | 8.42 | 9.74 |  |  |  |  |  |  | 
9 | O=NN(CCCl)C(=O)NCCCl | 44.8 | 47.8 | 42.3 | 1.01 | 0.934 | 0.932 | 0.946 | 0.929 | 0.856 | 4.49 | 4.2 | 5.44 | 4.8 | 6.45 | 8.52 |  |  |  |  |  |  | 
10 | C[C@@H]1O[C@@H](O[C@H]2[C@H](OC(=O)[C@]34CCC(C)(C)C[C@H]3C3=CC[C@@H]5[C@@]6(C)C[C@H](O)[C@H](O[C@@H]7O[C@H](CO)[C@@H](O)[C@H](O)[C@H]7O)[C@@](C)(CO)[C@@H]6CC[C@@]5(C)[C@]3(C)CC4)O[C@H](CO)[C@@H](O)[C@@H]2O)[C@H](O)[C@H](O)[C@H]1O[C@@H]1OC[C@@H](O)[C@H](O)[C@H]1O | 52.4 | 46.4 | 51 | 0.996 | 0.972 | 0.947 | 0.97 | 0.984 | 0.999 | 4.19 | 4.7 | 5.42 | 5.5 | 6.76 | 3.23 |  |  |  |  |  |  | 
